Blank lines part the entries; values can stand above or below the compound they belong to. Bridge positions count the residues as written; N and C are the ends. Square brackets hold non-standard residues; d marks the D form. Peptide text beside a SMILES is read from it. Hyp = O=C(O)[C@@H]1C[C@@H](O)CN1; Cit = NC(=O)NCCC[C@H](N)C(=O)O
What was measured:
hAMY3 receptor = molecular target: T1, hAMY3 receptor (Homo sapiens, UniProt O60896+P30988); assay: cAMP assay for in vitro receptor activation, hAMY3-R; type: cell-based; details: cAMP assay, hAMY3 receptor; read-out: hAMY3R EC50
T1 sequence (P30988 25-474): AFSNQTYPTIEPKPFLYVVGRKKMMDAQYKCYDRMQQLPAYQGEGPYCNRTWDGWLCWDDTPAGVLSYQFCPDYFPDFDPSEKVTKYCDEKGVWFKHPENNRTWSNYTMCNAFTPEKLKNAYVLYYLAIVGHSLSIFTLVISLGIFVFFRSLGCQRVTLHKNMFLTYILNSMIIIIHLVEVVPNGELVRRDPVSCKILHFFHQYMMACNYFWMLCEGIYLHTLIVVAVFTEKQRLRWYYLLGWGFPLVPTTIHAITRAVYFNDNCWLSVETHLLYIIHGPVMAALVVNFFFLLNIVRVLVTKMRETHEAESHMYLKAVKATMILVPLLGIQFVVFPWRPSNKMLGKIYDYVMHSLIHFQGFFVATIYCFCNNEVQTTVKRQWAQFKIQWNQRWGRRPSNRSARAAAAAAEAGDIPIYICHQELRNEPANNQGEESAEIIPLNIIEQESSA
T1 sequence (O60896 24-148 partner): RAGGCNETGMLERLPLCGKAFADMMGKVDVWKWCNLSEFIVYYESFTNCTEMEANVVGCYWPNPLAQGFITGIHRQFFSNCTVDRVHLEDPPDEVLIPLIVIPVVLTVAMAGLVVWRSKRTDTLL
Summary of the method: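 Monoclonal cell line stably overexpressing hAMY3 receptor, plated in DPBS with 0.05% casein and 0.5 mM IBMX, was stimulated with graded compound doses for 30 min at room temperature. cAMP accumulation was read by time-resolved FRET one hour after adding detection reagents.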

hAM1 receptor = hAM1 receptor (Homo sapiens, UniProt O60895+Q16602); assay: cAMP assay for in vitro receptor activation, hAM1-R; type: cell-based; details: cAMP assay, hAM1 receptor; read-out: hAM1R EC50
hAM1 receptor, sequence (Q16602 23-461): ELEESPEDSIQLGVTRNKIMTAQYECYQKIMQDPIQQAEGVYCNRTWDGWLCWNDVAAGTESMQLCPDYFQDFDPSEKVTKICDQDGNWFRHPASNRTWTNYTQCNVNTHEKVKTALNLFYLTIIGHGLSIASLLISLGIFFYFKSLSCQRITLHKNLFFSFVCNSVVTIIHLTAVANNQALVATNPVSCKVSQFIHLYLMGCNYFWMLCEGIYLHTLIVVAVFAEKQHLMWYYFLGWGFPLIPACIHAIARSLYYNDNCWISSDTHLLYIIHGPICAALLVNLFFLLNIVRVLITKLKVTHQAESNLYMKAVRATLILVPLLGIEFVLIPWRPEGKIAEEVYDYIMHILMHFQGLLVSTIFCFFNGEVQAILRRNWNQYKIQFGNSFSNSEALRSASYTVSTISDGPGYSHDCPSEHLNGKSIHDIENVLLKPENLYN
hAM1 receptor, sequence (O60895 43-175 partner): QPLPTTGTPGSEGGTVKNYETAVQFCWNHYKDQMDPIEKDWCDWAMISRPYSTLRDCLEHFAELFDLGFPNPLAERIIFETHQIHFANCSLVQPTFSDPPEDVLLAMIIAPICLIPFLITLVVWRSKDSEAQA
Summary of the method: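 Read-out is intracellular cAMP as a measure of receptor activation. Cells stably overexpressing hAM1 were subcloned to a monoclonal line, then thawed and seeded at 8000 cells/well in DPBS with 0.05% casein and the phosphodiesterase inhibitor IBMX at 0.5 mM.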

[1] = Physical stability of peptide analogues (Thioflavin T fibrillation); type: physicochemical; details: maximum ThT signal normalized between hAMY maximum and buffer background; 40° C., shaking, four days; pH 7 per table title
Summary of the method: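 ThT fluorescence (450 nm excitation, 480 nm emission; 4 μM dye) was read every 10 min over four days at 40° C under 700 rpm shaking stress, after 1 h in pH 4 acetate or pH 7 phosphate (50 mM). Peak smoothed signal expressed as percent, scaled between buffer background and hAMY maximum.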

Compound: CC[C@H](C)[C@H](NC(=O)[C@H](CCC(N)=O)NC(=O)[C@H](Cc1c[nH]cn1)NC(=O)[C@H](C)NC(=O)[C@H](CC(C)C)NC(=O)[C@H](CCCNC(=N)N)NC(=O)[C@H](CCC(N)=O)NC(=O)[C@@H](NC(=O)[C@@H](NC(=O)[C@@H]1CSSC[C@H](NC(=O)CN)C(=O)N[C@@H](CCCNC(=N)N)C(=O)N[C@@H]([C@@H](C)O)C(=O)NCC(=O)N[C@@H]([C@@H](C)O)C(=O)N1)[C@@H](C)O)C(C)C)C(=O)N[C@@H](Cc1ccc(O)cc1)C(=O)N[C@@H](CCC(N)=O)C(=O)N[C@@H](Cc1ccccc1)C(=O)N[C@H](C(=O)N[C@@H](CC(N)=O)C(=O)N[C@@H](CCCCN)C(=O)N[C@@H](CC(=O)O)C(=O)N[C@@H](CCCCN)C(=O)N[C@@H](CC(=O)O)C(=O)N[C@@H](CC(N)=O)C(=O)N[C@H](C(=O)N[C@@H](C)C(=O)N1CCC[C@H]1C(=O)N[C@@H](CCCNC(=N)N)C(=O)N[C@@H](CO)C(=O)N[C@@H](CCCCN)C(=O)N[C@H](C(=O)N[C@@H](CO)C(=O)N1CCC[C@H]1C(=O)N[C@@H](CCC(N)=O)C(=O)N[C@@H](Cc1ccccc1)C(=O)N1C[C@H](O)C[C@H]1C(N)=O)[C@@H](C)CC)C(C)C)[C@@H](C)O [compound 238] (H-GCRTGTCTVQRLAHQIYQFTNKDKDNVAPRSKISPQF[Hyp]-NH2; disulfide 2-7; N-terminus assumed)
EC50 (hAMY3 receptor): 0.235 nM | EC50 (hAM1 receptor): > 5000 nM | Max ThT signal (%) [1]: 0.600%

Compound: CC[C@H](C)[C@H](NC(=O)[C@H](CCC(N)=O)NC(=O)[C@H](Cc1c[nH]cn1)NC(=O)[C@H](C)NC(=O)[C@H](CC(C)C)NC(=O)[C@H](CCCNC(=N)N)NC(=O)[C@H](CCC(N)=O)NC(=O)[C@@H](NC(=O)[C@@H](NC(=O)[C@@H]1CSSC[C@H](NC(=O)CN)C(=O)N[C@@H](CCCNC(=N)N)C(=O)N[C@@H]([C@@H](C)O)C(=O)NCC(=O)N[C@@H]([C@@H](C)O)C(=O)N1)[C@@H](C)O)C(C)C)C(=O)N[C@@H](Cc1ccc(O)cc1)C(=O)N[C@@H](CCC(N)=O)C(=O)N[C@@H](Cc1ccccc1)C(=O)N[C@H](C(=O)N[C@@H](CC(=O)O)C(=O)N[C@@H](CCCCN)C(=O)N[C@@H](Cc1ccccc1)C(=O)N[C@@H](CCCCN)C(=O)N[C@@H](CC(=O)O)C(=O)N[C@@H](CC(N)=O)C(=O)N[C@H](C(=O)N[C@@H](C)C(=O)N1CCC[C@H]1C(=O)N[C@@H](CCCNC(=N)N)C(=O)N[C@@H](CO)C(=O)N[C@@H](CCCCN)C(=O)N[C@H](C(=O)N[C@@H](CO)C(=O)N1CCC[C@H]1C(=O)N[C@@H](CCC(N)=O)C(=O)N[C@H](C(=O)N[C@@H](Cc1ccccc1)C(N)=O)[C@@H](C)O)[C@@H](C)CC)C(C)C)[C@@H](C)O [compound 239] (H-GCRTGTCTVQRLAHQIYQFTDKFKDNVAPRSKISPQTF-NH2; disulfide 2-7; N-terminus assumed)
EC50 (hAMY3 receptor): 0.236 nM | EC50 (hAM1 receptor): > 5000 nM | Max ThT signal (%) [1]: 0.200%

Compound: CC[C@H](C)[C@H](NC(=O)[C@H](CCC(N)=O)NC(=O)[C@H](CC(=O)O)NC(=O)[C@H](C)NC(=O)[C@H](CC(C)C)NC(=O)[C@H](CCCNC(N)=O)NC(=O)[C@H](CC(N)=O)NC(=O)[C@@H](NC(=O)[C@@H](NC(=O)[C@@H]1CSSC[C@H](NC(=O)[C@@H](N)CCCNC(=N)N)C(=O)N[C@@H](CC(N)=O)C(=O)N[C@@H](C)C(=O)N[C@@H](CO)C(=O)N[C@@H]([C@@H](C)O)C(=O)N1)[C@@H](C)O)C(C)C)C(=O)N[C@H](C(=O)N[C@@H](CCC(N)=O)C(=O)N[C@@H](Cc1ccccc1)C(=O)N[C@@H](CO)C(=O)N[C@@H](CC(N)=O)C(=O)N[C@@H](CCCCN)C(=O)N[C@@H](CC(=O)O)C(=O)N[C@@H](CCCCN)C(=O)N[C@@H](C)C(=O)N[C@@H](CCC(N)=O)C(=O)N[C@H](C(=O)N[C@@H](CO)C(=O)N1CCC[C@H]1C(=O)N1CCC[C@H]1C(=O)N[C@H](C(=O)N[C@@H](CCC(=O)O)C(=O)N[C@H](C(=O)NCC(=O)N1CCC[C@H]1C(=O)N[C@@H](CC(N)=O)C(=O)N[C@@H](CO)C(=O)N1C[C@H](O)C[C@H]1C(N)=O)C(C)C)[C@@H](C)O)C(C)C)[C@@H](C)O [compound 245] (H-RCNASTCTVN[Cit]LADQITQFSNKDKAQVSPPTEVGPNS[Hyp]-NH2; disulfide 2-7; N-terminus assumed)
EC50 (hAMY3 receptor): 0.017 nM | EC50 (hAM1 receptor): > 5000 nM | Max ThT signal (%) [1]: 3.350%

Stronger by EC50 (hAMY3 receptor), values ahead:

EC50 (hAMY3 receptor): 0.01 nM | EC50 (hAM1 receptor): > 5000 nM | Max ThT signal (%) [1]: 4.200%
Compound: CC[C@H](C)[C@H](NC(=O)[C@H](CCC(N)=O)NC(=O)[C@H](Cc1c[nH]cn1)NC(=O)[C@H](C)NC(=O)[C@H](CC(C)C)NC(=O)[C@H](CCCNC(N)=O)NC(=O)[C@H](CCC(N)=O)NC(=O)[C@@H](NC(=O)[C@@H](NC(=O)[C@@H]1CSSC[C@H](NC(=O)[C@@H](N)CCCCN)C(=O)N[C@@H](CC(N)=O)C(=O)N[C@@H]([C@@H](C)O)C(=O)N[C@@H](C)C(=O)N[C@@H]([C@@H](C)O)C(=O)N1)[C@@H](C)O)C(C)C)C(=O)N[C@@H](C)C(=O)N[C@@H](CCC(N)=O)C(=O)N[C@@H](Cc1ccccc1)C(=O)N[C@H](C(=O)N[C@@H](CC(=O)O)C(=O)N[C@@H](CCCCN)C(=O)N[C@@H](CC(=O)O)C(=O)N[C@@H](CCCCN)C(=O)N[C@@H](CC(=O)O)C(=O)N[C@@H](CC(N)=O)C(=O)N[C@H](C(=O)N[C@@H](C)C(=O)N1CCC[C@H]1C(=O)N1CCC[C@H]1C(=O)N[C@H](C(=O)N[C@@H](CC(N)=O)C(=O)N[C@H](C(=O)NCC(=O)N[C@@H](CO)C(=O)N[C@@H](CC(N)=O)C(=O)NCC(=O)N1C[C@H](O)C[C@H]1C(N)=O)C(C)C)[C@@H](C)O)C(C)C)[C@@H](C)O [compound 246] (H-KCNTATCTVQ[Cit]LAHQIAQFTDKDKDNVAPPTNVGSNG[Hyp]-NH2; disulfide 2-7)

EC50 (hAMY3 receptor): 0.006 nM | EC50 (hAM1 receptor): > 5000 nM | Max ThT signal (%) [1]: 4.100%
Compound: CC[C@H](C)[C@H](NC(=O)[C@H](CCC(N)=O)NC(=O)[C@H](CC(=O)O)NC(=O)[C@H](C)NC(=O)[C@H](CC(C)C)NC(=O)[C@H](CCCNC(N)=O)NC(=O)[C@H](C)NC(=O)[C@@H](NC(=O)[C@@H](NC(=O)[C@@H]1CSSC[C@H](NC(=O)[C@@H](N)CCCCN)C(=O)N[C@@H](CC(N)=O)C(=O)N[C@@H]([C@@H](C)O)C(=O)N[C@@H](CO)C(=O)N[C@@H]([C@@H](C)O)C(=O)N1)[C@@H](C)O)C(C)C)C(=O)N[C@H](C(=O)N[C@@H](CCC(N)=O)C(=O)N[C@@H](Cc1ccccc1)C(=O)N[C@@H](CO)C(=O)N[C@@H](CC(N)=O)C(=O)N[C@@H](CCCCN)C(=O)N[C@@H](CC(=O)O)C(=O)N[C@@H](CCCCN)C(=O)N[C@@H](C)C(=O)N[C@@H](CCC(N)=O)C(=O)N[C@H](C(=O)N[C@@H](CO)C(=O)N1CCC[C@H]1C(=O)N1CCC[C@H]1C(=O)N[C@H](C(=O)N[C@@H](CCC(=O)O)C(=O)N[C@H](C(=O)NCC(=O)N1CCC[C@H]1C(=O)N[C@@H](CC(N)=O)C(=O)N[C@@H](CO)C(=O)N1C[C@H](O)C[C@H]1C(N)=O)C(C)C)[C@@H](C)O)C(C)C)[C@@H](C)O [compound 244] (H-KCNTSTCTVA[Cit]LADQITQFSNKDKAQVSPPTEVGPNS[Hyp]-NH2; disulfide 2-7)

EC50 (hAMY3 receptor): 0.004 nM | EC50 (hAM1 receptor): > 5000 nM | Max ThT signal (%) [1]: 1.350%
Compound: CC[C@H](C)[C@H](NC(=O)[C@H](CCC(N)=O)NC(=O)[C@H](CC(=O)O)NC(=O)[C@H](C)NC(=O)[C@H](CC(C)C)NC(=O)[C@H](CCCNC(N)=O)NC(=O)[C@H](C)NC(=O)[C@@H](NC(=O)[C@@H](NC(=O)[C@@H]1CSSC[C@H](NC(=O)[C@@H](N)CCCCN)C(=O)N[C@@H](CC(N)=O)C(=O)N[C@@H]([C@@H](C)O)C(=O)N[C@@H](CO)C(=O)N[C@@H]([C@@H](C)O)C(=O)N1)[C@@H](C)O)C(C)C)C(=O)N[C@H](C(=O)N[C@@H](CCC(N)=O)C(=O)N[C@@H](Cc1ccccc1)C(=O)N[C@@H](CO)C(=O)N[C@@H](CC(=O)O)C(=O)N[C@@H](CCCCN)C(=O)N[C@@H](CC(=O)O)C(=O)N[C@@H](CCCCN)C(=O)N[C@@H](C)C(=O)N[C@@H](CC(N)=O)C(=O)N[C@H](C(=O)N[C@@H](CO)C(=O)N1CCC[C@H]1C(=O)N1CCC[C@H]1C(=O)N[C@H](C(=O)N[C@@H](CCC(=O)O)C(=O)N[C@H](C(=O)NCC(=O)N1CCC[C@H]1C(=O)N[C@@H](CC(N)=O)C(=O)N[C@@H](CO)C(=O)N1C[C@H](O)C[C@H]1C(N)=O)C(C)C)[C@@H](C)O)C(C)C)[C@@H](C)O [compound 247] (H-KCNTSTCTVA[Cit]LADQITQFSDKDKANVSPPTEVGPNS[Hyp]-NH2; disulfide 2-7; N-terminus assumed)
